The record followed here is US20250163038A1, “CBL-B MODULATORS AND USES THEREOF” (Nimbus Clio, Inc., priority 2021, published 2025).

In assay [1] the target is T1, Recombinant human c-Cbl (aa 47-435) (Homo sapiens, UniProt P22681).
T1 sequence (P22681 47-435): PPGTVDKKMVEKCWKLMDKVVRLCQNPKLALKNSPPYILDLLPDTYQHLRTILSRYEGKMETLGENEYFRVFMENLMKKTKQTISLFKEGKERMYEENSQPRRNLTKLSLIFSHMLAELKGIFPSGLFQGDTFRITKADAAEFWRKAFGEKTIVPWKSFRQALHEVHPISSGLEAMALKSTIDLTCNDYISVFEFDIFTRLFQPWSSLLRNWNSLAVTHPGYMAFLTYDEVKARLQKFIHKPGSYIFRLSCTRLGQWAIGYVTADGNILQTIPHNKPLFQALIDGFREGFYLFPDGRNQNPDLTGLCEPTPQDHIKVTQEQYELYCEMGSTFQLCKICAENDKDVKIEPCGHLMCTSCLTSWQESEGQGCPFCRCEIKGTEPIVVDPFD
The assay can be described thus: c-Cbl Biochemical Assay (TR-FRET). Particulars: hc-Cbl Biochemical Assay (TR-FRET); read-out: TR-FRET hcCbl IC50. (Time-resolved FRET reads energy transfer from a long-lived donor to a nearby acceptor.)

Assay [2] has as its target Recombinant human Cbl-b (aa 36-427) (Homo sapiens, UniProt Q13191). Nature of the assay: Cbl-b Biochemical Assay (TR-FRET). Particulars: read-out: TR-FRET hCbl-b IC50.
Assay [3] has as its system Jurkat (clone E6-1) cells with NFAT luciferase reporter. Nature of the assay: Jurkat reporter assay (NFAT Luciferase). It counts as cell-based. Particulars: Homo sapiens.
Setting [4] is: Jurkat NFAT luciferase reporter cells, anti-CD3 stimulation, 6 hr, read-out: Jurkat NFAT EC50.
Setting [5] is: Jurkat, 6 h, read-out: Jurkat NFAT EC50 (μM).

SMILES strings stand for the structures. Read-outs that look alike come from different tables or passages of the source. Bounds are passed on as bounds.

Recombinant human Cbl-b (aa 36-427), sequence (Q13191 36-427): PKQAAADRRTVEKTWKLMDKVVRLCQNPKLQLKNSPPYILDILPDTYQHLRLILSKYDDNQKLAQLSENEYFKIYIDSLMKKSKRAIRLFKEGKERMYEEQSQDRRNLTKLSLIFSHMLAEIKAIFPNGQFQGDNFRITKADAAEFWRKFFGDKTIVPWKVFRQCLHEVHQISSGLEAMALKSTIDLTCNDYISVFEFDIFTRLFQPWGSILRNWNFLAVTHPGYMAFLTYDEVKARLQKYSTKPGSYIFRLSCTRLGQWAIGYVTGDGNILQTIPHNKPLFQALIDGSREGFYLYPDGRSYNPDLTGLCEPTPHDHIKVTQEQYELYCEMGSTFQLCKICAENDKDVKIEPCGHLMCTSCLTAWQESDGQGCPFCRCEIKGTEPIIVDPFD

As for `Cn1cnnc1-c1cc(C#N)ccc1-c1cc(-c2nc3cc(CNCC4CCC4)cc(F)c3o2)nc(C2CC2)c1` [AHE-2, 4-[2-(5-{[(cyclobutylmethyl)amino]methyl}-7-fluoro-1,3-benzoxazol-2-yl)-6-cyclopropylpyridin-4-yl]-3-(4-methyl-1,2,4-triazol-3-yl) benzonitrile], the IC50 in assay [1] and in assay [2] was under 200 nM each time. In assay [3] (setting [4]), the EC50 – broadly, the midpoint of the concentration-response curve – is under 0.2 µM.

Turning to `CO[C@@H](C)CNCc1cc(C)c2oc(-c3cc(-c4ccc(F)cc4-c4nncn4C)cc(C4CC4)n3)nc2c1` [AHF-1, [(2-{6-cyclopropyl-4-[4-fluoro-2-(4-methyl-1,2,4-triazol-3-yl)phenyl]pyridin-2-yl}-7-methyl-1,3-benzoxazol-5-yl)methyl][(2S)-2-methoxypropyl]amine], the IC50 in assay [1] and in assay [2] was under 200 nM throughout. Besides, in assay [3] (setting [4]), the EC50 is under 0.2 µM.

On to `COCCNCc1cc2nc(-c3cc(-c4ccc(F)cc4-c4nncn4C)cc(C4CC4)n3)oc2c(C)c1F` [AHG-1, [(2-{6-cyclopropyl-4-[4-fluoro-2-(4-methyl-1,2,4-triazol-3-yl)phenyl]pyridin-2-yl}-6-fluoro-7-methyl-1,3-benzoxazol-5-yl)methyl](2-methoxyethyl)amine], for which the half-inhibitory concentration (IC50) in assay [1] and in assay [2] was under 200 nM in each case. In assay [3] (setting [4]), the 50% effective concentration (EC50) was under 0.2 µM.

Take `CN(C)Cc1cc2nc(-c3cc(-c4ccc(F)cc4-c4nncn4C)cc(C4CC4)n3)oc2c(F)c1F` [AHH-3, [(2-{6-cyclopropyl-4-[4-fluoro-2-(4-methyl-1,2,4-triazol-3-yl)phenyl]pyridin-2-yl}-6,7-difluoro-1,3-benzoxazol-5-yl)methyl]dimethylamine]: the IC50 (usually the concentration needed to halve the response being measured) is 200 to 1000 nM in assay [1] and under 200 nM in assay [2]. Also, in assay [3] (setting [5]), the EC50 is 1 to 10 µM.

In the case of `Cn1cnnc1-c1cc(Cl)ccc1-c1cc(-c2nc3cc(CNCC4(O)CCC4)cc(F)c3o2)nc(C2CC2)c1` [AHI-5, 1-({[(2-{4-[4-chloro-2-(4-methyl-1,2,4-triazol-3-yl)phenyl]-6-cyclopropylpyridin-2-yl}-7-fluoro-1,3-benzoxazol-5-yl)methyl]amino}methyl)cyclobutan-1-ol], the IC50 in assay [1] and in assay [2] was under 200 nM throughout. Also, in assay [3] (setting [4]), the EC50 is under 0.2 µM.

Regarding `Cc1c(F)c(CNCC2(O)CCC2)cc2nc(-c3cc(-c4ccc(F)cc4-c4nncn4C)cc(C4CC4)n3)oc12` [AHJ-1, 1-({[(2-{6-cyclopropyl-4-[4-fluoro-2-(4-methyl-1,2,4-triazol-3-yl)phenyl]pyridin-2-yl}-6-fluoro-7-methyl-1,3-benzoxazol-5-yl)methyl]amino}methyl)cyclobutan-1-ol], the IC50 in assay [1] and in assay [2] was under 200 nM throughout. Also, in assay [3] (setting [4]), the 50% effective concentration (EC50) is under 0.2 µM.

As to `Cc1c(F)c(CNCC(C)(C)O)cc2nc(-c3cccc(-c4ccc(F)cc4-c4nncn4C)c3)oc12` [AHK-4, 1-[({6-fluoro-2-[4′-fluoro-2′-(4-methyl-1,2,4-triazol-3-yl)-[1,1′-biphenyl]-3-yl]-7-methyl-1,3-benzoxazol-5-yl}methyl)amino]-2-methylpropan-2-ol], the IC50 in assay [1] and in assay [2] was under 200 nM each time. In addition, in assay [3] (setting [4]), the EC50 was under 0.2 µM.

As to `Cn1cnnc1-c1cc(F)ccc1-c1cc(-c2nc3cc(C(C)(C)O)c(F)c(F)c3o2)nc(C2CC2)c1` [AHL-7, 2-(2-{6-cyclopropyl-4-[4-fluoro-2-(4-methyl-1,2,4-triazol-3-yl)phenyl]pyridin-2-yl}-6,7-difluoro-1,3-benzoxazol-5-yl)propan-2-ol], the IC50 in assay [1] lay in the range of 1000 to 10000 nM; in assay [2] it was 200 to 1000 nM. Besides, the concentration for a half-maximal effect (EC50) in assay [3] (setting [4]) lay within 1 to 10 µM.

On to `Cn1cnnc1-c1cc(F)ccc1-c1cc(-c2nc3cc(CN)cc(F)c3o2)nc(C2CC2)c1` [AHM-3, 1-(2-{6-cyclopropyl-4-[4-fluoro-2-(4-methyl-1,2,4-triazol-3-yl)phenyl]pyridin-2-yl}-7-fluoro-1,3-benzoxazol-5-yl)methanamine], for which the half-maximal inhibitory concentration (IC50) is 200 to 1000 nM in assay [1] and under 200 nM in assay [2]. In addition, the EC50 in assay [3] (setting [5]) lay within 1 to 10 µM.

Turning to `COC(C)(C)CNCc1cc(C(F)(F)F)c2oc(-c3cccc(-c4ccc(F)cc4-c4nncn4C)c3)nc2c1` [AI-2, N-((2-(4′-Fluoro-2′-(4-methyl-4H-1,2,4-triazol-3-yl)-[1,1′-biphenyl]-3-yl)-7-(trifluoromethyl)benzo[d]oxazol-5-yl)methyl)-2-methoxy-2-methylpropan-1-amine], the IC50 was 1000 to 10000 nM in assay [1] and under 200 nM in assay [2]. The EC50 in assay [3] (setting [4]) lay in the range of 0.2 to 1 µM.

As to `Cn1cnnc1-c1cc(F)ccc1-c1cccc(-c2nc3cc(CNCC4(O)CCCC4)cc(C(F)(F)F)c3o2)c1` [AK-2, 1-((((2-(4′-Fluoro-2′-(4-methyl-4H-1,2,4-triazol-3-yl)-[1,1′-biphenyl]-3-yl)-7-(trifluoromethyl)benzo[d]oxazol-5-yl)methyl)amino)methyl)cyclopentan-1-ol, Acetate], the results for the half-maximal inhibitory concentration (IC50) in assay [1] and in assay [2] were 1000 to 10000 nM and under 200 nM, respectively. For the same compound, the concentration giving a half-maximal response (EC50) in assay [3] (setting [4]) lay within 0.2 to 1 µM.

Take `C[C@@H](O)CNCc1cc(C(F)(F)F)c2oc(-c3cccc(-c4ccc(F)cc4-c4nncn4C)c3)nc2c1` [AL-2, (R)-1-(((2-(4′-Fluoro-2′-(4-methyl-4H-1,2,4-triazol-3-yl)-[1,1′-biphenyl]-3-yl)-7-(trifluoromethyl)benzo[d]oxazol-5-yl)methyl)amino)propan-2-ol]: the concentration for half-maximal inhibition (IC50) in assay [1] is 1000 to 10000 nM; in assay [2], under 200 nM. In addition, the EC50 in assay [3] (setting [4]) was 0.2 to 1 µM.

Turning to `C[C@H](O)CNCc1cc(C(F)(F)F)c2oc(-c3cccc(-c4ccc(F)cc4-c4nncn4C)c3)nc2c1` [AM-2, (S)-1-(((2-(4′-Fluoro-2′-(4-methyl-4H-1,2,4-triazol-3-yl)-[1,1′-biphenyl]-3-yl)-7-(trifluoromethyl)benzo[d]oxazol-5-yl)methyl)amino)propan-2-ol], the concentration for half-maximal inhibition (IC50) in assay [1] is 1000 to 10000 nM; in assay [2], under 200 nM. Besides, in assay [3] (setting [4]), the half-maximal effective concentration (EC50) is 0.2 to 1 µM.

Consider `Cn1cnnc1-c1cc(F)ccc1-c1cccc(-c2nc3cc(CNCCO)cc(C(F)(F)F)c3o2)c1` [AN-2, 2-(((2-(4′-Fluoro-2′-(4-methyl-4H-1,2,4-triazol-3-yl)-[1,1′-biphenyl]-3-yl)-7-(trifluoromethyl)benzo[d]oxazol-5-yl)methyl)amino)ethan-1-ol], for which the concentration for half-maximal inhibition (IC50) is 1000 to 10000 nM in assay [1] and under 200 nM in assay [2]. For the same compound, in assay [3] (setting [4]), the EC50 was 1 to 10 µM.

With `Cn1cnnc1-c1cc(F)ccc1-c1cccc(-c2nc3cc(CNCC(C)(C)O)ccc3o2)c1` [AO-2, 1-(((2-(4′-Fluoro-2′-(4-methyl-4H-1,2,4-triazol-3-yl)-[1,1′-biphenyl]-3-yl)benzo[d]oxazol-5-yl)methyl)amino)-2-methylpropan-2-ol], the IC50 in assay [1] was 1000 to 10000 nM; in assay [2] it was under 200 nM. In addition, the EC50 in assay [3] (setting [4]) is 0.2 to 1 µM.

On to `CN(Cc1cc(C(F)(F)F)c2oc(-c3cccc(-c4ccc(F)cc4-c4nncn4C)c3)nc2c1)CC(C)(C)O` [AP-2, 1-(((2-(4′-Fluoro-2′-(4-methyl-4H-1,2,4-triazol-3-yl)-[1,1′-biphenyl]-3-yl)-7-(trifluoromethyl)benzo[d]oxazol-5-yl)methyl)(methyl)amino)-2-methylpropan-2-ol], for which the IC50 in assay [1] was 1000 to 10000 nM; in assay [2] it was under 200 nM. In assay [3] (setting [4]), the concentration giving a half-maximal response (EC50) lay in the range of 0.2 to 1 µM.
